{"source": "patent US20230330251A1", "about": "“METHODS FOR TREATING CANCERS WITH ANTIBODY DRUG CONJUGATES (ADC) THAT BIND TO 191P4D12 PROTEINS” (AGENSYS, INC., priority 2020, published 2023)", "key": {"[1]": {"test_system": "subjects with previously treated locally advanced or metastatic urothelial cancer", "test": "EV-301 phase 3 study: overall survival (OS), enfortumab vedotin vs chemotherapy", "format": "in vivo, human", "from_the_text": "Subjects will be stratified according to the following: Eastern Cooperative Oncology Group Performance Status (ECOG PS), regions of the world and liver metastasis.\nOS is the primary endpoint. OS is defined as the time from randomization to the date of death. Secondary endpoints include PFS1, ORR, DOR, DCR, safety and QOL/PRO.\nSubjects in Arm A will receive EV on Days 1, 8 and 15 of each 28-day cycle. […] Within the control arm, the overall proportion of subjects receiving vinflunine will be capped at approximately 35%. Subjects will continue to receive study treatment until radiological disease progression as determined per investigator assessment or other discontinuation criteria are met or upon study termination, or study completion, whichever occurs first. No on-study crossover will be allowed. This study will consist of 3 phases: screening, treatment and follow-up.\nThe Full Analysis Set (FAS) will be used for the efficacy analysis on OS and PFS1. All subjects who are randomized will be included in the FAS. For time to event endpoints including OS and PFS1 log-rank test stratified by randomization stratification factors including liver metastasis, baseline ECOG PS and regions of the world at baseline will be used to compare the 2 treatment arms. The hazard ratio and corresponding 95% confidence interval from the stratified Cox proportional hazards regression model will also be presented. The median OS, PFS1 and DOR will be estimated using the Kaplan-Meier method and will be reported along with the corresponding 95% confidence interval by treatment arm.\nEfficacy analysis for OS and PFS was conducted on the FAS. The interpretation of results from statistical tests was based on the FAS. Efficacy analysis for response related endpoints, e.g., ORR and DCR was conducted on RES.\nOS was formally tested at both interim analysis and final analysis. At either interim or final analysis, the formal hypothesis tests on the selected secondary endpoints including PFS1, ORR and DCR, were performed hierarchically (per the order of PFS1->ORR->DCR) only when the OS analysis is rejected. The details about the significance levels at interim analysis and final analysis for each efficacy endpoints (OS, PFS1, ORR and DCR) is specified in SAP.\nThe primary efficacy endpoint of OS was analyzed using the log-rank test stratified by ECOG PS (0 vs 1), regions of the world (Western EU, US or the rest of world) and liver metastasis (yes or no). Randomized treatment and the strata used for randomization was used for the analysis. In addition, the stratified Cox proportional hazard model was used to estimate the hazard ratio and the corresponding 95% confidence interval. The median OS was estimated using the Kaplan-Meier method and will be reported along with the corresponding 95% confidence interval by treatment arm.\nThe primary analysis was performed using the FAS.\nAdditional analyses such as unstratified log-rank test and OS analyses adjusting the crossover effect may be conducted, if appropriate. Details are specified in the SAP."}, "[2]": {"test_system": "metastatic urothelial cancer patients", "test": "Phase 1 study of EV: clinical activity by dose", "format": "in vivo, human", "details": "1.25 mg/kg dose vs lower doses", "protocol": "EV will be administered at a dose of 1.25 mg/kg as an intravenous infusion over approximately 30 minutes on Days 1, 8, and 15 of each 28-day cycle. […] A maximum tolerated dose (MTD) was not reached in this study. At the 1 mg/kg dose level, 2 dose- limiting toxicities (DLTs) were observed: Grade 3 proctalgia (later changed to grade 2 by the investigator) thought related to radiation recall and Grade 4 hyperuricemia without clinical sequelae."}}}
{"substance": "enfortumab vedotin", "values": [{"measurement": "HR (95% CI), OS sensitivity analysis", "setting": "[1]; Adjusting in chemotherapy arm based on the rank preserving structural failure time method", "value": "0.705 (0.516-0.853)"}, {"measurement": "Median OS", "setting": "[1]; All", "value": 12.88, "unit": "mo"}, {"measurement": "OS, EV vs SC HR", "setting": "[1]; All", "value": 0.702}, {"measurement": "Overall survival (OS) Events, %", "setting": "[1]; All", "value": "(44.5) %"}, {"measurement": "Overall survival (OS) Events, n/N", "setting": "[1]; All", "value": "134/301"}, {"measurement": "Median OS", "setting": "[1]; FAS, Kaplan-Meier", "value": 12.88, "unit": "Months"}, {"measurement": "Deaths, %", "setting": "[1]; FAS, interim analysis", "value": "(44.5%)"}, {"measurement": "# of Deaths", "setting": "[1]; Full Analysis Set, data cutoff 15 Jul. 2020", "value": 134}, {"measurement": "HR (95% CI), OS sensitivity analysis", "setting": "[1]; Inverse probability of censoring weights method", "value": "0.630 (0.435-0.912)"}, {"measurement": "reduction in risk of death", "setting": "[1]; PADCEV vs chemotherapy", "value": 30, "unit": "%"}, {"measurement": "HR (95% CI), OS sensitivity analysis", "setting": "[1]; Unstratified analysis", "value": "0.719 (0.572-0.903)"}, {"measurement": "estimated percentage of patients alive at 12 months", "setting": "[1]; in vivo", "value": 51.5, "unit": "%"}, {"measurement": "overall survival (OS) compared with standard chemotherapy", "setting": "[1]; in vivo", "value": "superior"}, {"measurement": "primary endpoint of overall survival compared to chemotherapy", "setting": "[1]; in vivo", "value": "met its primary endpoint of overall survival"}, {"measurement": "risk of death lower with enfortumab vedotin than with chemotherapy", "setting": "[1]; median follow-up 11.1 months", "value": 30, "unit": "%"}, {"measurement": "clinical activity by dose", "setting": "[2]", "value": "highest activity"}]}
